Results on 2 molecules are retold here after patent US9346758B2, “Pyridinone compounds for use in photodynamic therapy” (UNIVERSITY OF EXETER, priority 2012, dated 2016).

Values joined by “and” are separate entries in the source; they are usually repeats but may differ in a detail not shown here. Identical values can stand only once.

The subject of series [1] is MRC-5 (human embryonic lung fibroblast) cells. The series is described as follows: Toxicity testing: neutral red uptake (NRU) assay, inherent (dark) toxicity. The note with it: 0.01% (v/v), positive control. The procedure:
Control cells were incubated in standard cell culture medium.

The subject of series [2] is human epithelial squamous cell carcinoma cells (A431). The series is described as follows: PDT efficacy: cell viability (NRU assay) following irradiation. Format: cell-based. The note with it: 4 h dark incubation, red light 37 J/cm^2, normalised to blank control.
Procedure: (§1) To assess the effect of AP2-18 (8) on PpIX-induced PDT efficacy, the same three cell types were exposed to equimolar concentrations of ALA, ALA and CP94 (3), MAL, MAL and CP94 (3), and AP2-18 (8) (as described previously) and incubated in the dark for 4 hours. The level of PpIX accumulation was then quantified as before, prior to irradiation with red light (37 J/cm^2; 635±2 nm; Aktilite, Galderma, UK).
The subject of series [3] is human glioblastoma cells (U87MG). The series is described as above. In kind it is cell-based. The settings on record: 500 μM (combinations: 500 μM each), 4 h dark incubation, red light 37 J/cm^2, normalised to blank control.
Procedure: as §1
The subject of series [4] is human epithelial squamous cell carcinoma cells (A431). The series can be described thus: Cell viability (NRU assay) after irradiation with varying incubation periods (2, 3 or 4 hours). In kind it is cell-based. The note with it: A431 cells, then red light 37 J/cm^2, NRU assay, individual replicates.
Procedure: Neutral red is an inert dye actively taken up and stored by viable (living) cells, an action which is unable to be performed by non-viable cells, therefore the level of neutral red taken up is directly proportional to the number of viable cells present following a given exposure. Following uptake of the dye, cells are lysed and the level of neutral red quantified using a plate reader.
After the relevant incubation period, the cells were irradiated with red light (37 J/cm^2; 635±2 nm; Aktilite, Galderma, UK).
Series [5] deals with human dermal fibroblasts (84BR). The series is described as follows: PDT efficacy: cell viability (NRU assay) following irradiation. The note with it: Homo sapiens, Fibroblast, light or radiation study, 4 h, read-out: cell viability following irradiation, 84BR, 4 hours in the dark, red light 37 J/cm^2, NRU, normalised against blank control cells.
Procedure: as §1
The subject of series [6] is human epithelial squamous cell carcinoma cells (A431). The series can be described thus: PpIX fluorescence after varying incubation periods (2, 3 or 4 hours). The settings on record: A431 cells, individual replicates.
Procedure: Briefly, cells were seeded at 2×10^4 cells per well in a 96 well plate and left to adhere overnight. Test solutions were prepared on the day of the assay and applied to the cells. The level of PpIX produced was monitored using a multi-well fluorescent plate reader with a 400 (±30) nm excitation filter and a 645 (±40) nm emission filter, with the level of fluorescence produced being directly proportional to the level of PpIX present. Readings were taken hourly for 6 hours and were conducted under low light conditions to reduce photobleaching of PpIX.

With `OO` [H2O2, hydrogen peroxide], the “cell viability by NRU” value in series [1] was “significant reduction in cell viability”.

Take `COC(=O)CCC(=O)CN` [MAL, methyl aminolevulinate]: the “cell viability following irradiation” value in series [2] (250 μM (combinations: 250 μM each)) is 90.46% and 107.8629% and 109.4385% and 93.64% and 106.3667%; in series [2] (500 μM (combinations: 500 μM each)), 90.24% and 110.2301% and 98.69% and 113.2846% and 104.0869% and 74.42%; in series [3], 83.8% and 72.46% and 73.96% and 78.24% and 80.7%. In series [2] (Homo sapiens, A-431, light or radiation study, 4 h, 250 μM (combinations: 250 μM each)), the viability at 250 µM was 110%. Besides, the viability at 500 µM in series [3] (Homo sapiens, U-87 MG, light or radiation study, 4 h) was 81.6%; in series [5] (500 μM) it was 80.9%. In addition, the cell viability in series [4] (250 μM (each drug), incubation time 2 hours, 250 µM) was 78.63 and 100.9237 and 89.58 and 117.6227 and 107.2209 and 106.7755 and 45.7309 and 63.26 and 57.86; in series [4] (250 μM (each drug), incubation time 3 hours, 250 µM), 92.9 and 73.67 and 65.45 and 62.6519 and 51.74 and 54.37 and 33.36 and 40.45 and 63.31 and 38.2134 and 54.71 and 47.85; in series [4] (250 μM (each drug), incubation time 4 hours, 250 µM), 90.46 and 107.8629 and 109.4385 and 93.64 and 106.3667 and 111.1665 and 115.1445 and 124.4547; in series [4] (500 μM (each drug), incubation time 2 hours, 500 µM), 103.8357 and 110.62 and 117.5455 and 82.92 and 108.8432 and 82.89 and 99.5 and 114.8824 and 75.71; in series [4] (500 μM (each drug), incubation time 3 hours, 500 µM) it was 40.78 and 47.71 and 49.73 and 71.71 and 76.89 and 81.87 and 74.41 and 55.25 and 104.0986 and 49.38 and 75.04 and 67.4; in series [4] (500 μM (each drug), incubation time 4 hours, 500 µM) it was 90.24 and 110.2301 and 98.69 and 113.2846 and 104.0869 and 74.42 and 104.4856 and 97.36 and 135.6405. Besides, the cell viability in series [4] (1000 μM (each drug), incubation time 2 hours, 1000 µM) is 113.344 and 113.9162 and 113.1911 and 108.366 and 113.6783 and 85.84 and 45.89 and 39.15 and 53.82; in series [4] (1000 μM (each drug), incubation time 3 hours, 1000 µM), 93.27 and 84.83 and 88.71 and 39.35 and 38.5 and 43.01 and 59.91 and 53.88 and 52.9157 and 75.55 and 92.95 and 90.52; in series [4] (1000 μM (each drug), incubation time 4 hours, 1000 µM) it was 91.78 and 85.804 and 110.3323 and 138.7061 and 132.5587 and 155.8802 and 165.2883 and 91.73 and 106.1163. The viability at 1000 µM in series [5] (1000 μM) is 97.3%. Besides, the PpIX fluorescence in series [6] (500 μM (each drug), incubation time 2 hours) is −7.33 and 4.67 and −5.67 (2×) and −7.67 and 8.67 and −2.33 and 1.67 and 21; in series [6] (500 μM (each drug), incubation time 3 hours) it was −3.67 and −6.67 and 5.33 and −2.67 (2×) and 0.33 and 7.67 and −2.33 and 1.67; in series [6] (500 μM (each drug), incubation time 4 hours), −4.33 and −7.33 and 3.67 (2×) and 0.67 and 1.67 and 9 and 0 and 2; in series [6] (1000 μM (each drug), incubation time 2 hours), 28 and 21 and 9.67 and 10.67 and 11.67 and −3.667 and 0.3333 and −8.333 and 51; in series [6] (1000 μM (each drug), incubation time 3 hours) it was 45 and 50 and 42 and 22.67 and 25.67 and 20.67 and −3.333 and 0.6667 and −10.3333; in series [6] (1000 μM (each drug), incubation time 4 hours), 70 and 74 and 64 and 34.33 and 39.33 and 30.33 and −2 and 4 and −8.333.
